Usually logP stands for a log measure of how a compound divides between an organic and an aqueous phase. Higher therefore signals a more lipophilic compound.

SMILES strings stand for the structures.

In data set [1] the test system is Septoria tritici. In words: In vivo preventive test on Septoria tritici (wheat). The note with it: preventive spray, 500 ppm of active ingredient, evaluated 21 days after inoculation. The procedure:
In Vivo Preventive Test on Septoria tritici (Wheat)
(§1) Solvent: 49 parts by weight of N,N-dimethylacetamide
(§2) Emulsifier: 1 part by weight of alkylaryl polyglycol ether
(§3) To produce a suitable preparation of active compound, 1 part by weight of active compound or active compound combination is mixed with the stated amounts of solvent and emulsifier, and the concentrate is diluted with water to the desired concentration.
(§4) To test for preventive activity, young plants are sprayed with the preparation of active compound or active compound combination at the stated rate of application.
After the spray coating has been dried, the plants are sprayed with a spore suspension of Septoria tritici. The plants remain for 48 hours in an incubation cabinet at approximately 20° C. and a relative atmospheric humidity of approximately 100% and afterwards for 60 hours at approximately 15° C. in a translucent incubation cabinet at a relative atmospheric humidity of approximately 100%.
The plants are placed in the greenhouse at a temperature of approximately 15° C. and a relative atmospheric humidity of approximately 80%.
The test is evaluated 21 days after the inoculation. 0% means an efficacy which corresponds to that of the untreated control, while an efficacy of 100% means that no disease is observed.

For data set [2], the system named is Blumeria graminis f.sp. hordei. The data set can be described thus: In vivo preventive test on Blumeria graminis (barley). The following applies: preventive spray, 500 ppm of active ingredient, evaluated 7 days after inoculation. The procedure: In Vivo Preventive Test on Blumeria graminis (Barley)
as §1, §2, §3, §4
After the spray coating has been dried, the plants are dusted with spores of Blumeria graminis f.sp. hordei.
The plants are placed in the greenhouse at a temperature of approximately 18° C. and a relative atmospheric humidity of approximately 80% to promote the development of mildew pustules.
The test is evaluated 7 days after the inoculation. 0% means an efficacy which corresponds to that of the untreated control, while an efficacy of 100% means that no disease is observed.

The nature of data set [3]: log P by HPLC on reversed-phase column (EEC Directive 79/831 Annex V.A8). It is filed as physicochemical. The following applies: 0.1% aqueous formic acid and acetonitrile, linear gradient 10% to 90% acetonitrile. Summed up:
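Column at 40° C; mobile phases 0.1% aqueous formic acid and acetonitrile, linear gradient 10% to 90% acetonitrile. Calibrated with unbranched alkan-2-ones (3 to 16 carbons) of known log P; values from retention times by linear interpolation between two successive alkanones.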

In data set [4] the test system is Alternaria solani. In words: In vivo preventive test on Alternaria solani (tomato). The following applies: preventive spray, 500 ppm of active ingredient, evaluated 7 days after inoculation. The essentials:
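Young tomato plants sprayed with compound formulated in DMF with alkylarylpolyglycolether emulsifier and diluted in water, then inoculated one day later with A. solani spore suspension. Kept 1 day at about 22 °C, 100% humidity, then about 20 °C, 96% humidity. Efficacy scored 7 days post-inoculation, 0% = untreated control, 100% = no disease.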

For data set [5], the system named is Sphaerotheca fuliginea. The data set can be described thus: In vivo preventive test on Sphaerotheca fuliginea (cucumber). The note with it: preventive spray, 500 ppm of active ingredient, evaluated 7 days after inoculation.
Data set [6] deals with Puccinia triticina. The data set can be described thus: In vivo preventive test on Puccinia triticina (wheat). The note with it: preventive spray, 500 ppm of active ingredient, evaluated 8 days after inoculation. The protocol:
In Vivo Preventive Test on Puccinia triticina (Wheat)
as §1, §2, §3, §4
After the spray coating has been dried, the plants are sprayed with a spore suspension of Puccinia triticina. The plants remain for 48 hours in an incubation cabinet at approximately 20° C. and a relative atmospheric humidity of approximately 100%.
The plants are placed in the greenhouse at a temperature of approximately 20° C. and a relative atmospheric humidity of approximately 80%.
The test is evaluated 8 days after the inoculation. 0% means an efficacy which corresponds to that of the untreated control, while an efficacy of 100% means that no disease is observed.

The test system of data set [7] is Pyrenophora teres. The data set can be described thus: In vivo preventive test on Pyrenophora teres (barley). The note with it: preventive spray, 500 ppm of active ingredient, evaluated 7-9 days after inoculation. The essentials:
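Young barley plants were sprayed with compound formulated in N,N-dimethylacetamide/emulsifier and diluted with water, then inoculated with P. teres spores one day later. After 48 h at 22° C., 100% humidity, plants stood in a greenhouse (~20° C., ~80% humidity); efficacy versus untreated control was scored 7-9 days post-inoculation.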

In data set [8] the test system is Leptosphaeria nodorum. The data set can be described thus: In vivo preventive test on Leptosphaeria nodorum (wheat). The following applies: preventive spray, 500 ppm of active ingredient, evaluated 7-9 days after inoculation. The protocol: In Vivo Preventive Test on Leptosphaeria nodorum (Wheat)
as §1, §2
To produce a suitable preparation of active compound, 1 part by weight of active compound is mixed with the stated amounts of solvent and emulsifier, and the concentrate is diluted with water to the desired concentration.
To test for preventive activity, young plants are sprayed with a preparation of active compound at the stated rate of application. One day after this treatment, the plants are inoculated with an aqueous spore suspension of Leptosphaeria nodorum. The plants remain for 48 hours in an incubation cabinet at 22° C. and a relative atmospheric humidity of 100%. Then the plants are placed in a greenhouse at a temperature of approximately 22° C. and a relative atmospheric humidity of approximately 90%.
The test is evaluated 7-9 days after the inoculation. 0% means an efficacy which corresponds to that of the untreated control, while an efficacy of 100% means that no disease is observed.
Under these conditions, good (at least 70%) to excellent protection (at least 95%) is observed at a dose of 500 ppm of active ingredient with the following compounds from table D: […]

Turning to `Cn1nc(C(F)F)c(C(=O)N(Cc2c(Cl)cccc2C(F)(F)F)C2CCC2)c1F` [Example 90], the Efficacy is 100% in data set [1]; 100% in data set [2]; 95% in data set [4]; 100% in data set [5]; 95% in data set [6]; 100% in data set [7]. In addition, the logP in data set [3] (HPLC, reversed-phase C 18, 40° C.) is recorded as 3.81.
As to `CC(c1ncc(Cl)cc1Cl)N(C)C(=O)c1c(C(F)F)nn(C)c1F` (centres unmarked) [Example 185], the Efficacy in data set [8] is given as 95%; in data set [1] it was 100%; in data set [2], 100%; in data set [4] it was 100%; in data set [6], 90%; in data set [7] it was 95%. Also, in data set [3] (HPLC on reversed-phase column (C 18), 40° C.), the logP is given as 2.92.

Values taken from patent US9084424B2, “N-benzyl heterocyclic carboxamides” (BAYER INTELLECTUAL PROPERTY GMBH, priority 2010, dated 2015).
